Experimental data: patent publication US11485657B2, “Biological remediation of groundwater using an algal photobioreactor system” (priority 2019, dated 2022)

Test system: C. subellipsoidea
Assay: Paraoxon hydrolysis in C. subellipsoidea cultures assayed by p-nitrophenol production (absorbance 408 nm)
Assay type: cell-based, Coccomyxa subellipsoidea
Conditions: for hydrolysis of paraoxon into p-nitrophenol with oligomycin and rotenone in the dark: oligomycin 20 μg/mL and rotenone 20 μg/mL together, samples at 12 h, 24 h, 48 h

Row | Compound | effect on paraoxon hydrolysis, DCMU and paraoxon in the light (actively growing cultures, light) | production of p-nitrophenol from paraoxon in the presence of DCMU (paraoxon 0.25 mg/mL, 12 h, light, versus absence of DCMU) | hydrolysis of paraoxon into p-nitrophenol with oligomycin and rotenone in the dark (paraoxon 0.25 mg/mL)
1 | CN(C)C(=O)Nc1ccc(Cl)c(Cl)c1 [DCMU, 3-(3,4-dichlorophenyl)-1,1-dimethylurea] | blocked hydrolysis | decreased nearly two-fold | 
2 | CC[C@H]1/C=C/C=C/C[C@@H](C)[C@H](O)[C@@](C)(O)C(=O)[C@@H](C)[C@H](O)[C@@H](C)C(=O)[C@@H](C)[C@H](O)[C@@H](C)/C=C/C(=O)O[C@@H]2[C@H](C)[C@H](CC1)O[C@]1(CC[C@H](C)[C@H](C[C@@H](C)O)O1)[C@H]2C [oligomycin] |  |  | not hydrolyzed
3 | C=C(C)[C@H]1Cc2c(ccc3c2O[C@@H]2COc4cc(OC)c(OC)cc4[C@@H]2C3=O)O1 [rotenone] |  |  | not hydrolyzed
